According to patent US20180273528A1 (LES LABORATOIRES SERVIER, priority 2015, published 2018):

target: T1, His-TEV-DYRK1A Kinase domain (aa127-485) (Homo sapiens, UniProt Q13627); test: Kinase ADP assay (ADP Hunter), DYRK1A kinase domain; format: biochemical; settings: 20 μM ATP
T1 construct: His-TEV-DYRK1A Kinase domain (aa127-485); His tag (N); TEV protease cleavage site (N)
Procedure: The enzyme reaction was conducted in assay buffer (pH 7.4), containing 15 mM Hepes; 20 mM NaCl; 1 mM EGTA; 10 mM MgCl2; 0.02% Tween20 and 0.1 mg/ml Bovine-y-globulin. Test compounds of the invention were added in reaction buffer in a range of concentrations for 10 minutes at 30° C. in the presence of 20 nM DYRK1A enzyme, 40 μM peptide substrate and 20 μM ATP. Detection reagents (DiscoveRx 90-0083), ADP Hunter Plus Reagent A and then ADP Hunter Plus Reagent B were added. After a following 20 minutes incubation at 30° C., ADP Hunter Plus Stop Solution was added. The fluorescence intensity was measured at 590 nm.

Compound | IC50 [µM]
4-{3-[2-(2,6-dimethoxyphenoxy)ethyl]-3H-imidazo[4,5-b]pyridin-5-yl}pyridine-2,6-diamine [Example 213] | 0.069
Cc1nc2ccc(-c3cc(N)nc(N)c3)nc2n1[C@H](C)COc1ccccc1 (single isomer, unassigned) [Example 104] | 0.045
Cc1nc2ccc(-c3cc(N)nc(N)c3)nc2n1[C@@H](C)COc1ccccc1 (single isomer, unassigned) [Example 105] | 0.092
Cc1nc2ccc(-c3cc(N)nc(N)c3)nc2n1C[C@@H](C)Oc1ccccc1Cl (single isomer, unassigned) [Example 118] | 0.031
Cc1nc2ccc(-c3cc(N)nc(N)c3)nc2n1C[C@@H](C)Oc1ccc(F)cc1 (single isomer, unassigned) [Example 130] | 0.058
COc1ccccc1O[C@H](C)Cn1c(C)nc2ccc(-c3cc(N)nc(N)c3)nc21 (single isomer, unassigned) [Example 142] | 0.037
Cc1nc2ccc(-c3cc(N)nc(N)c3)nc2n1C[C@H](C)Oc1ccc(F)cn1 (single isomer, unassigned) [Example 178] | 0.176
Cc1nc2ccc(-c3cc(N)nc(N)c3)nc2n1C[C@@H](C)Oc1cccc(Br)n1 (single isomer, unassigned) [Example 181] | 0.081
Cc1nc2ccc(-c3cc(N)nc(N)c3)nc2n1C[C@@H](C)Oc1ncccc1Br (single isomer, unassigned) [Example 183] | 0.226
Cc1nc2ccc(-c3cc(N)nc(N)c3)nc2n1C[C@H](C)Oc1ccc(Cl)cn1 (single isomer, unassigned) [Example 184] | 0.165
Cc1nc2ccc(-c3cc(N)nc(N)c3)nc2n1C[C@@H](C)Oc1ccc(Cl)cn1 (single isomer, unassigned) [Example 185] | 0.041
Cc1nc2ccc(-c3cc(N)nc(N)c3)nc2n1C[C@H](C)Oc1ccc(Br)cn1 (single isomer, unassigned) [Example 186] | 0.154
Cc1nc2ccc(-c3cc(N)nc(N)c3)nc2n1C[C@@H](C)Oc1ncccc1Cl (single isomer, unassigned) [Example 191] | 0.2
Cc1nc2ccc(-c3cc(N)nc(N)c3)nc2n1C[C@H](C)Oc1nc(F)ccc1F (single isomer, unassigned) [Example 192] | 0.084
Cc1nc2ccc(-c3cc(N)nc(N)c3)nc2n1C[C@@H](C)Oc1nc(F)ccc1F (single isomer, unassigned) [Example 193] | 0.028
Cc1nc2ccc(-c3cc(N)nc(N)c3)nc2n1CCCCO [Example 70, 4-[5-(2,6-diaminopyridin-4-yl)-2-methyl-3H-imidazo[4,5-b]pyridin-3-yl]butan-1-ol] | 0.013
Cc1nc2ccc(-c3cc(N)nc(N)c3)nc2n1CC1CCCOC1 (stereo not drawn) [Example 76, 4-[2-methyl-3-(tetrahydro-2H-pyran-3-ylmethyl)-3H-imidazo[4,5-b]pyridin-5-yl]pyridine-2,6-diamine] | 0.04
Cc1nc2ccc(-c3cc(N)nc(N)c3)nc2n1CC1CCOCC1 [Example 80, 4-[2-methyl-3-(tetrahydro-2H-pyran-4-ylmethyl)-3H-imidazo[4,5-b]pyridin-5-yl]pyridine-2,6-diamine] | 0.043
Cc1nc2ccc(-c3cc(N)nc(N)c3)nc2n1C(C)Cc1ccco1 (stereo not drawn) [Example 82, 4-{3-[1-(furan-2-yl)propan-2-yl]-2-methyl-3H-imidazo[4,5-b]pyridin-5-yl}pyridine-2,6-diamine] | 0.096
Cc1nc2ccc(-c3cc(N)nc(N)c3)nc2n1CCc1cccc(OC(C)C)c1 [Example 87] | 0.017
Cc1nc2ccc(-c3cc(N)nc(N)c3)nc2n1CCC1CCCCC1C (stereo not drawn) [Example 102, 4-{2-methyl-3-[2-(2-methylcyclohexyl)ethyl]-3H-imidazo[4,5-b]pyridin-5-yl}pyridine-2,6-diamine] | 0.017

Compound | IC50 [µM]
Cc1nc2ccc(-c3cc(N)nc(N)c3)nc2n1C/C=C/c1ccccc1 [Example 111, 4-{2-methyl-3-[(2E)-3-phenylprop-2-en-1-yl]-3H-imidazo[4,5-b]pyridin-5-yl}pyridine-2,6-diamine] | 0.012
CCCCc1nc2ccc(-c3cc(N)nc(N)c3)nc2n1CCOc1ccccc1 [Example 146, 4-[2-butyl-3-(2-phenoxyethyl)-3H-imidazo[4,5-b]pyridin-5-yl]pyridine-2,6-diamine] | 0.089
CCCCc1nc2ccc(-c3cc(N)nc(N)c3)nc2n1C [Example 147, 4-(2-butyl-3-methyl-3H-imidazo[4,5-b]pyridin-5-yl)pyridine-2,6-diamine] | 0.021
CCc1nc2ccc(-c3cc(N)nc(N)c3)nc2n1C [Example 159, 4-(2-ethyl-3-methyl-3H-imidazo[4,5-b]pyridin-5-yl)pyridine-2,6-diamine] | 0.043
CCCc1nc2ccc(-c3cc(N)nc(N)c3)nc2n1CCOc1ccccc1 [Example 162, 4-[3-(2-phenoxyethyl)-2-propyl-3H-imidazo[4,5-b]pyridin-5-yl]pyridine-2,6-diamine] | 0.056
CCCc1nc2ccc(-c3cc(N)nc(N)c3)nc2n1C [Example 163, 4-(3-methyl-2-propyl-31-imidazo[4,5-b]pyridin-5-yl)pyridine-2,6-diamine] | 0.033
Cc1nc2ccc(-c3cc(N)nc(N)c3)nc2n1CCOc1ncccc1Br [Example 169, 4-(3-{2-[(3-bromopyridin-2-yl)oxy]ethyl}-2-methyl-3H-imidazo[4,5-b]pyridin-5-yl)pyridine-2,6-diamine] | 0.055
Cc1nc2ccc(-c3cc(N)nc(N)c3)nc2n1C[C@@H](C)Oc1ccc(Br)cn1 [Example 187] | 0.082
Cc1cccc(OCCn2c(C)nc3ccc(-c4cc(N)nc(N)c4)nc32)c1 [Example 201, 4-{2-methyl-3-[2-(3-methylphenoxy)ethyl]-3H-imidazo[4,5-b]pyridin-5-yl}pyridine-2,6-diamine] | 0.021
Cc1nc2ccc(-c3cc(N)nc(N)c3)nc2n1CCOc1ccccc1Cl [Example 204, 4-{3-[2-(2-chlorophenoxy)ethyl]-2-methyl-3H-imidazo[4,5-b]pyridin-5-yl}pyridine-2,6-diamine] | 0.041
Cc1ccccc1OCCn1c(C)nc2ccc(-c3cc(N)nc(N)c3)nc21 [Example 205, 4-{2-methyl-3-[2-(2-methylphenoxy)ethyl]-3H-imidazo[4,5-b]pyridin-5-yl}pyridine-2,6-diamine] | 0.03
COc1ccc(OCCn2c(C)nc3ccc(-c4cc(N)nc(N)c4)nc32)cc1 [Example 209, 4-{3-[2-(4-methoxyphenoxy)ethyl]-2-methyl-3H-imidazo[4,5-b]pyridin-5-yl}pyridine-2,6-diamine] | 0.025
COc1ccc(C)cc1OCCn1c(C)nc2ccc(-c3cc(N)nc(N)c3)nc21 [Example 211, 4-{3-[2-(2-methoxy-5-methylphenoxy)ethyl]-2-methyl-3H-imidazo[4,5-b]pyridin-5-yl}pyridine-2,6-diamine] | 0.049
Cc1nc2ccc(-c3cc(N)nc(N)c3)nc2n1CCOc1ccccc1OC(C)C [Example 214, 4-(2-methyl-3-{2-[2-(propan-2-yloxy)phenoxy]ethyl}-3H-imidazo[4,5-b]pyridin-5-yl)pyridine-2,6-diamine] | 0.072
CCOc1ccccc1OCCn1c(C)nc2ccc(-c3cc(N)nc(N)c3)nc21 [Example 215, 4-{3-[2-(2-ethoxyphenoxy)ethyl]-2-methyl-3H-imidazo[4,5-b]pyridin-5-yl}pyridine-2,6-diamine] | 0.066
Cc1nc2ccc(-c3cc(N)nc(N)c3)nc2n1CCOc1cccnc1 [Example 216, 4-{2-methyl-3-[2-(pyridin-3-yloxy)ethyl]-3H-imidazo[4,5-b]pyridin-5-yl}pyridine-2,6-diamine] | 0.029
Cc1nc2ccc(-c3cc(N)nc(N)c3)nc2n1CCOc1ccnn1C [Example 218, 4-(2-methyl-3-{2-[(1-methyl-1H-pyrazol-5-yl)oxy]ethyl}-3H-imidazo[4,5-b]pyridin-5-yl)pyridine-2,6-diamine] | 0.057
Cc1nc2ccc(-c3cc(N)nc(N)c3)nc2n1CCOc1ncccn1 [Example 219, 4-{2-methyl-3-[2-(pyrimidin-2-yloxy)ethyl]-3H-imidazo[4,5-b]pyridin-5-yl}pyridine-2,6-diamine] | 0.04
C=CCCn1c(C)nc2ccc(-c3ccnc(N)c3)nc21 [Example 239, 4-[3-(but-3-en-1-yl)-2-methyl-3H-imidazo[4,5-b]pyridin-5-yl]pyridin-2-amine] | 0.068
Cc1nc2ccc(-c3cc(F)nc(N)c3F)nc2n1C1CC1 [Example 241, 4-(3-cyclopropyl-2-methyl-3H-imidazo[4,5-b]pyridin-5-yl)-3,6-difluoropyridin-2-amine] | 0.098
Cc1nc2ccc(-c3c(F)c(N)nc(N)c3F)nc2n1C1CC1 [Example 242, 4-(3-cyclopropyl-2-methyl-3H-imidazo[4,5-b]pyridin-5-yl)-3,5-difluoropyridine-2,6-diamine] | 0.154
